Test results published in PubChem BioAssay AID1919007 (Molecular Pharmacology Branch, DTP, NCI, 2023).

System: A498 complex spheroids with HUVEC/MSC, growth
Experiment: Anticancer human tumor A498 cell line growth inhibition [AhR];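 also: seven day exposure starting three days after spheroid seeding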;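 as to viability, T/C: luminescence signal used as a surrogate for viable cells; luminescence viability scaled so 100% equals DMSO vehicle wells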
Conditions: for IC50: curve of first compound; for viability, T/C: stronger effect = lower value
Outline: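 Agents were dosed in half-log steps down from roughly clinical Cmax, or from 10 microM where Cmax was unknown, alone and with AhR antagonists. Read-out: percent test/control growth of tumor spheroids containing HUVEC and MSC stromal cells.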

[1] = second compound 0.1 µM, first compound 0.0316 µM
[2] = second compound 0.1 µM, first compound 0.1 µM
[3] = second compound 0.1 µM, first compound 0.316 µM
[4] = second compound 0.1 µM, first compound 1 µM
[5] = second compound 0.316 µM, first compound 0.0316 µM
[6] = second compound 0.316 µM, first compound 0.1 µM
[7] = second compound 0.316 µM, first compound 0.316 µM
[8] = second compound 0.316 µM, first compound 1 µM
[9] = second compound 1 µM, first compound 0.0316 µM
[10] = second compound 1 µM, first compound 0.1 µM
[11] = second compound 1 µM, first compound 0.316 µM
[12] = second compound 1 µM, first compound 1 µM
[13] = second compound 3.16 µM, first compound 0.0316 µM
[14] = second compound 3.16 µM, first compound 0.1 µM
[15] = second compound 3.16 µM, first compound 0.316 µM
[16] = second compound 3.16 µM, first compound 1 µM
[17] = second compound 10 µM, first compound 0.0316 µM
[18] = second compound 10 µM, first compound 0.1 µM
[19] = second compound 10 µM, first compound 0.316 µM
[20] = second compound 10 µM, first compound 1 µM

Row | Structure (SMILES) | IC50 (second compound 0.1 µM) [µM] | IC50 (second compound 0.316 µM) [µM] | IC50 (second compound 1 µM) [µM] | IC50 (second compound 3.16 µM) [µM] | IC50 (second compound 10 µM) [µM] | viability, T/C [1] [%] | viability, T/C [2] [%] | viability, T/C [3] [%] | viability, T/C [4] [%] | viability, T/C [5] [%] | viability, T/C [6] [%] | viability, T/C [7] [%] | viability, T/C [8] [%] | viability, T/C [9] [%] | viability, T/C [10] [%] | viability, T/C [11] [%] | viability, T/C [12] [%] | viability, T/C [13] [%] | viability, T/C [14] [%] | viability, T/C [15] [%] | other results
1 | CC(C)c1c(-c2ccccc2)nc2c(C#N)c[nH]n2c1=O + Cc1ccccc1N=Nc1ccc(NC(=O)c2ccnn2C)c(C)c1 | > 10 | > 10 | > 10 | > 10 | > 10 | 78.9 | 84.9 | 83.2 | 81.8 | 87.7 | 88.5 | 89.7 | 85.9 | 80.1 | 74.6 | 86.8 | 78.1 | 77.2 | 79.2 | 79.6 | viability, T/C (second compound 0.1 µM, first compound 3.16 µM): 80.2%; viability, T/C (second compound 0.1 µM, first compound 10 µM): 84.2%; viability, T/C (second compound 0.316 µM, first compound 3.16 µM): 82.8%; viability, T/C (second compound 0.316 µM, first compound 10 µM): 89.5%; viability, T/C (second compound 1 µM, first compound 3.16 µM): 76.7%; viability, T/C (second compound 1 µM, first compound 10 µM): 77.5%; viability, T/C [16]: 76.8%; viability, T/C (second compound 3.16 µM, first compound 3.16 µM): 72.7%; viability, T/C (second compound 3.16 µM, first compound 10 µM): 78.1%; viability, T/C [17]: 80.2%; viability, T/C [18]: 81.7%; viability, T/C [19]: 74.3%; viability, T/C [20]: 81%; viability, T/C (second compound 10 µM, first compound 3.16 µM): 71.8%; viability, T/C (second compound 10 µM, first compound 10 µM): 74.1%
2 | CC1COCCN1c1cc(-c2ccnn2C)c2ccnc(-c3ccn[nH]3)c2n1 (stereo not given) + Cc1ccccc1N=Nc1ccc(NC(=O)c2ccnn2C)c(C)c1 | 0.0219 | 0.0503 | 0.0849 | 0.097 | 0.0847 | 49.7 | 34.2 | 25.1 | 15.7 | 58.8 | 33.9 | 17.8 | 17.8 | 74.7 | 47.4 | 16.4 | 12.9 | 84.3 | 47.9 | 20.8 | viability, T/C (second compound 0.1 µM, first compound 0.00316 µM): 71.7%; viability, T/C (second compound 0.1 µM, first compound 0.01 µM): 54.4%; viability, T/C (second compound 0.316 µM, first compound 0.00316 µM): 71.2%; viability, T/C (second compound 0.316 µM, first compound 0.01 µM): 86.6%; viability, T/C (second compound 1 µM, first compound 0.00316 µM): 87.5%; viability, T/C (second compound 1 µM, first compound 0.01 µM): 94.8%; viability, T/C (second compound 3.16 µM, first compound 0.00316 µM): 94.7%; viability, T/C (second compound 3.16 µM, first compound 0.01 µM): 87.7%; viability, T/C [16]: 11.1%; viability, T/C (second compound 10 µM, first compound 0.00316 µM): 90.1%; viability, T/C (second compound 10 µM, first compound 0.01 µM): 87.1%; viability, T/C [17]: 69.9%; viability, T/C [18]: 47.6%; viability, T/C [19]: 23.1%; viability, T/C [20]: 13.9%
